The NIST ThermoML archive (doi:10.1021/acs.jced.8b00132)
Where “and” joins values, the source holds several entries; their conditions need not be identical. Identical values can stand only once. ± gives the expanded uncertainty stated by the source.

O=C(C(F)(F)C(F)(F)F)C(F)(C(F)(F)F)C(F)(F)F [dodecafluoro-2-methylpentan-3-one]
thermal conductivity (344.55 K, 132 kPa, Gas, hot wire): 0.01525 ± 0.00073 W/m/K | thermal conductivity (344.55 K, 192 kPa, Gas, transient hot wire): 0.01458 ± 0.00091 W/m/K | thermal conductivity (344.56 K, 170 kPa, Gas, transient hot wire): 0.01468 ± 0.00093 W/m/K | thermal conductivity (344.56 K, 192 kPa, Gas, transient hot wire): 0.01463 ± 0.00091 W/m/K | thermal conductivity (344.57 K, 170 kPa, Gas, transient hot wire): 0.01503 ± 0.00094 W/m/K | thermal conductivity (344.6 K, 134 kPa, Gas, transient hot wire): 0.01526 ± 0.00095 W/m/K and 0.01525 ± 0.00095 W/m/K | thermal conductivity (344.61 K, 83 kPa, Gas, hot wire): 0.01485 ± 0.0007 W/m/K | thermal conductivity (344.62 K, 83 kPa, Gas, hot wire): 0.0148 ± 0.0007 W/m/K | thermal conductivity (344.67 K, 26 kPa, Gas, hot wire): 0.01453 ± 0.00069 W/m/K | thermal conductivity (344.68 K, 26 kPa, Gas, hot wire): 0.01449 ± 0.00069 W/m/K | thermal conductivity (344.8 K, 192 kPa, Gas, transient hot wire): 0.01479 ± 0.00097 W/m/K and 0.01481 ± 0.00097 W/m/K | thermal conductivity (344.83 K, 170 kPa, Gas, transient hot wire): 0.01525 ± 0.00095 W/m/K and 0.01449 ± 0.00091 W/m/K | thermal conductivity (344.85 K, 134 kPa, Gas, transient hot wire): 0.01542 ± 0.00096 W/m/K | thermal conductivity (344.87 K, 134 kPa, Gas, transient hot wire): 0.01544 ± 0.001 W/m/K | thermal conductivity (345.08 K, 191 kPa, Gas, transient hot wire): 0.0149 ± 0.00095 W/m/K | thermal conductivity (345.08 K, 192 kPa, Gas, transient hot wire): 0.01491 ± 0.00095 W/m/K | thermal conductivity (345.11 K, 169 kPa, Gas, transient hot wire): 0.01531 ± 0.00096 W/m/K | thermal conductivity (345.11 K, 170 kPa, Gas, transient hot wire): 0.01528 ± 0.00095 W/m/K | thermal conductivity (345.14 K, 134 kPa, Gas, transient hot wire): 0.01546 ± 0.00096 W/m/K | thermal conductivity (345.15 K, 133 kPa, Gas, transient hot wire): 0.01547 ± 0.00096 W/m/K | thermal conductivity (345.36 K, 191 kPa, Gas, transient hot wire): 0.01503 ± 0.00095 W/m/K | thermal conductivity (345.37 K, 191 kPa, Gas, transient hot wire): 0.01504 ± 0.00095 W/m/K | thermal conductivity (345.39 K, 169 kPa, Gas, transient hot wire): 0.01534 ± 0.00096 W/m/K | thermal conductivity (345.4 K, 169 kPa, Gas, transient hot wire): 0.01485 ± 0.00093 W/m/K | thermal conductivity (345.44 K, 133 kPa, Gas, transient hot wire): 0.01551 ± 0.00099 W/m/K | thermal conductivity (345.45 K, 133 kPa, Gas, transient hot wire): 0.0155 ± 0.00099 W/m/K | thermal conductivity (345.67 K, 191 kPa, Gas, transient hot wire): 0.01515 ± 0.00094 W/m/K | thermal conductivity (345.68 K, 191 kPa, Gas, transient hot wire): 0.01514 ± 0.00094 W/m/K | thermal conductivity (345.72 K, 169 kPa, Gas, transient hot wire): 0.0154 ± 0.00095 W/m/K and 0.01511 ± 0.00094 W/m/K | thermal conductivity (345.77 K, 132 kPa, Gas, transient hot wire): 0.01531 ± 0.00095 W/m/K | thermal conductivity (345.77 K, 133 kPa, Gas, transient hot wire): 0.01548 ± 0.00096 W/m/K | thermal conductivity (358.25 K, 257 kPa, Gas, hot wire): 0.01686 ± 0.0008 W/m/K | thermal conductivity (358.26 K, 257 kPa, Gas, hot wire): 0.01685 ± 0.00079 W/m/K | thermal conductivity (358.3 K, 188 kPa, Gas, hot wire): 0.01631 ± 0.00078 W/m/K | thermal conductivity (358.3 K, 189 kPa, Gas, hot wire): 0.01648 ± 0.00078 W/m/K | thermal conductivity (358.33 K, 91 kPa, Gas, hot wire): 0.01584 ± 0.00075 W/m/K | thermal conductivity (358.34 K, 91 kPa, Gas, hot wire): 0.01584 ± 0.00075 W/m/K | thermal conductivity (358.37 K, 26 kPa, Gas, hot wire): 0.01548 ± 0.00073 W/m/K and 0.01551 ± 0.00073 W/m/K | thermal conductivity (358.38 K, 256 kPa, Gas, hot wire): 0.01692 ± 0.0008 W/m/K | thermal conductivity (358.38 K, 257 kPa, Gas, hot wire): 0.01694 ± 0.0008 W/m/K | thermal conductivity (358.43 K, 187 kPa, Gas, hot wire): 0.01629 ± 0.00078 W/m/K | thermal conductivity (358.43 K, 188 kPa, Gas, hot wire): 0.01632 ± 0.00078 W/m/K | thermal conductivity (358.47 K, 91 kPa, Gas, hot wire): 0.01587 ± 0.00075 W/m/K and 0.0159 ± 0.00075 W/m/K | thermal conductivity (358.5 K, 26 kPa, Gas, hot wire): 0.01551 ± 0.00073 W/m/K | thermal conductivity (358.5 K, 256 kPa, Gas, hot wire): 0.01713 ± 0.00081 W/m/K | thermal conductivity (358.51 K, 26 kPa, Gas, hot wire): 0.0155 ± 0.00073 W/m/K | thermal conductivity (358.52 K, 256 kPa, Gas, hot wire): 0.0169 ± 0.0008 W/m/K | thermal conductivity (358.57 K, 187 kPa, Gas, hot wire): 0.01629 ± 0.00077 W/m/K and 0.01635 ± 0.00078 W/m/K | thermal conductivity (358.62 K, 91 kPa, Gas, hot wire): 0.01584 ± 0.00075 W/m/K and 0.01592 ± 0.00075 W/m/K | thermal conductivity (358.62 K, 255 kPa, Gas, hot wire): 0.01734 ± 0.00082 W/m/K | thermal conductivity (358.63 K, 256 kPa, Gas, hot wire): 0.01729 ± 0.00082 W/m/K | thermal conductivity (358.65 K, 67979 kPa, Liquid, transient hot wire): 0.07391 ± 0.0015 W/m/K | thermal conductivity (358.66 K, 26 kPa, Gas, hot wire): 0.01548 ± 0.00073 W/m/K and 0.01547 ± 0.00073 W/m/K | thermal conductivity (358.66 K, 67960 kPa, Liquid, transient hot wire): 0.07383 ± 0.0015 W/m/K | thermal conductivity (358.69 K, 56156 kPa, Liquid, transient hot wire): 0.07064 ± 0.0014 W/m/K | thermal conductivity (358.69 K, 56160 kPa, Liquid, transient hot wire): 0.07055 ± 0.0014 W/m/K | thermal conductivity (358.71 K, 187 kPa, Gas, hot wire): 0.01648 ± 0.00078 W/m/K and 0.01644 ± 0.00078 W/m/K | thermal conductivity (358.77 K, 92 kPa, Gas, hot wire): 0.01588 ± 0.00075 W/m/K and 0.01586 ± 0.00075 W/m/K | thermal conductivity (358.77 K, 255 kPa, Gas, hot wire): 0.01736 ± 0.00082 W/m/K | thermal conductivity (358.77 K, 43866 kPa, Liquid, transient hot wire): 0.06694 ± 0.0014 W/m/K | thermal conductivity (358.77 K, 43876 kPa, Liquid, transient hot wire): 0.06686 ± 0.0014 W/m/K | thermal conductivity (358.78 K, 255 kPa, Gas, hot wire): 0.01726 ± 0.00081 W/m/K | thermal conductivity (358.82 K, 26 kPa, Gas, hot wire): 0.01555 ± 0.00073 W/m/K and 0.0155 ± 0.00073 W/m/K | thermal conductivity (358.82 K, 67912 kPa, Liquid, transient hot wire): 0.07388 ± 0.0015 W/m/K | thermal conductivity (358.82 K, 67930 kPa, Liquid, transient hot wire): 0.07402 ± 0.0015 W/m/K | thermal conductivity (358.83 K, 33615 kPa, Liquid, transient hot wire): 0.06347 ± 0.0013 W/m/K | thermal conductivity (358.84 K, 257 kPa, Gas, transient hot wire): 0.01632 ± 0.001 W/m/K | thermal conductivity (358.84 K, 258 kPa, Gas, transient hot wire): 0.01621 ± 0.001 W/m/K | thermal conductivity (358.84 K, 33614 kPa, Liquid, transient hot wire): 0.06347 ± 0.0013 W/m/K | thermal conductivity (358.85 K, 186 kPa, Gas, hot wire): 0.0166 ± 0.00079 W/m/K and 0.01657 ± 0.00079 W/m/K | thermal conductivity (358.85 K, 56137 kPa, Liquid, transient hot wire): 0.07063 ± 0.0014 W/m/K | thermal conductivity (358.88 K, 189 kPa, Gas, transient hot wire): 0.01639 ± 0.001 W/m/K | thermal conductivity (358.88 K, 56124 kPa, Liquid, transient hot wire): 0.07064 ± 0.0014 W/m/K | thermal conductivity (358.9 K, 188 kPa, Gas, transient hot wire): 0.01635 ± 0.001 W/m/K | thermal conductivity (358.92 K, 24957 kPa, Liquid, transient hot wire): 0.06017 ± 0.0012 W/m/K | thermal conductivity (358.92 K, 24958 kPa, Liquid, transient hot wire): 0.06023 ± 0.0012 W/m/K | thermal conductivity (358.94 K, 92 kPa, Gas, hot wire): 0.01588 ± 0.00075 W/m/K | thermal conductivity (358.95 K, 92 kPa, Gas, hot wire): 0.01588 ± 0.00075 W/m/K | thermal conductivity (358.95 K, 43858 kPa, Liquid, transient hot wire): 0.06694 ± 0.0014 W/m/K | thermal conductivity (358.95 K, 43862 kPa, Liquid, transient hot wire): 0.06691 ± 0.0014 W/m/K | thermal conductivity (358.98 K, 26 kPa, Gas, hot wire): 0.01553 ± 0.00073 W/m/K | thermal conductivity (358.99 K, 26 kPa, Gas, hot wire): 0.0155 ± 0.00073 W/m/K | thermal conductivity (358.99 K, 67877 kPa, Liquid, transient hot wire): 0.0739 ± 0.0015 W/m/K | thermal conductivity (358.99 K, 67897 kPa, Liquid, transient hot wire): 0.07388 ± 0.0015 W/m/K
